The structures appear in SMILES notation. Read-outs that look alike come from different tables or passages of the source.

The text below walks through data of EP1375483A1, “6-CHLORO-3-PYRIDYLMETHYLPROPYLAMINE DERIVATIVES, PREPARATION PROCESS THEREOF AND BACTERICIDES” (KUREHA KAGAKU KOGYO KABUSHIKI KAISHA, priority 2001, dated 2001).

One test deals with cucumber powdery mildew. The test can be described thus: Test of control effect on cucumber powdery mildew (Test Example 2). Type of test: in vivo. The conditions noted are these: wettable powder 100 mg/l, 100 liters/10 a, sprinkled on cucumbers (Sagamihanpakufushinari) before inoculation, examined 9th to 14th day after inoculation; for pest or weed control at 100 µg/mL: Cucumis sativus. How it is done: The wettable powders formulated by using each of the compounds I-1 to 27 according to the present invention and the comparative compounds (a) to (d), (m-1) and (m-3) were each diluted and suspended with water to a predetermined concentration (100 mg/l), the suspension was sprinkled over the first to the second leaf period cucumbers (variety: "[…]") cultivated by using a square plastic pot (size: 6. 4 cm x 6. 4 cm) in a rate of 100 liters/10 a (ares). After the sprinkled leaves were air-dried, the spores were inoculated over the leaves by sprinkling the same with a brush from an infected leaf, a disease was contracted in a glass house (temperature: 20 to 24°C, relative humidity: 20 to 70 RH). On the 9th to 14th day after the inoculation, the infection degree was examined according to the following scale and the control value of each compound was calculated by the following calculation equation 2: [table] (Equation 2) Control value = (1 - infection degree of treated zone/infection degree of untreated zone) x 100 (%) [formula] The control values of each compound are shown in Table 9.

Another test relates to Botrytis cinerea. The test is described as follows: Antifungal activity test against various pathogenic fungi, hypha extension on PDA plates (Test Example 3). Type of test: cell-based. The following applies: for inhibition at 1.6 ppm: read-out: Growth Inhibition B.c (1.6).
Test [1] concerns wheat powdery mildew. The test is described as follows: Test of control effect on wheat powdery mildew (Test Example 1). It counts as in vivo. The conditions noted are these: wettable powder 125 mg/l, 100 liters/10 a, sprinkled on wheat seedlings (Nourin 64) before inoculation, examined 9th to 14th day after inoculation; for pest or weed control at 125 µg/mL: Triticum aestivum. Here is the method:
Wettable powders were prepared from compounds of the present invention I-1 to I-27 and comparative compounds (a) to (d) , (m-1) and (m-3). The obtained wettable powder was diluted and suspended with water to provide the predetermined concentration (125 mg/l), and was sprinkled onto seedlings of wheat (variety: "Nourin 64") at the first to the second leaf period which were cultivated using square plastic pots (size: 6.4 cm x 6.4 cm) in a rate of 100 liters/10 a (ares). After drying the sprinkled leaves with air, a suspension of wheat powdery mildew spores taken from infected leaves was inoculated by spraying onto the sprinkled leaves. They were supervised in a green house (temperature: 20 to 24°C, relative humidity: 20 to 70 RH). On the 9th to 14th day after the inoculation, the infection degree was examined according to the following scale and the control value of each compound was calculated by the following calculation equation 1. [table] (Equation 1) Control value = (1 - infection degree of treated zone/infection degree of untreated zone) x 100 (%) [formula] The control values of each compound are shown in Table 8.

Test [2] has as its system wheat powdery mildew. The test is described as follows: Permeable mobility fungicidal effect test in leaf section of wheat powdery mildew (Test Example 4). Type of test: in vivo. Here is the method: In the test example 4, permeable mobility fungicidal effect test was performedon the leaf section of wheat powdery mildew with regard to the compounds I-1 to 27 according to the present invention and the comparative compounds (a) to (d), and (m-1) to (m-3) with the method described later. The compound in the form of a wettable powder obtained by Formulation 2 or the like was diluted and suspended with water to a predetermined concentration (200mg/l), and 0.5 µl of the suspension was applied to a 2 to 3 cm leaf portion from the root of the three leaves of the 4th to 4.5th leaf period wheat (variety: Abukumawase) cultured by using a square plastic pot (size: 6.4 cm x 6.4 cm). After these wheat leaves were subject to still standing in a glass house (temperature: 20 to 24C, relative humidity: 20 to 70 RH) for one day, the spores of wheat powdery mildew were inoculated over the leaves by sprinkling the same with a brush from an infected leaf, a disease was contracted in the same glass house. The length of a non-contracted area generated from the applied portion to the direction of the leaf top was measured, and a relative mobility to the compound (m-2) was calculated with the following calculation […] by using the comparative compound (m-2) as a standard compound. (Equation 4) Relative mobility = (Length of non-contracted area in each chemical section (cm)/Length of non-contracted area of compound (m-2) (cm)) [formula]

In another test the test system is Leptosphaeria nodorum. The test is described as follows: Antifungal activity test against various pathogenic fungi, hypha extension on PDA plates (Test Example 3). The conditions noted are these: Parastagonospora nodorum, read-out: Growth Inhibition L.n (0.8). It counts as cell-based.
Setting [3] is: 1.6 ppm in PDA culture medium, cultured 1 to 7 days.
Setting [4] is: length of non-contracted area relative to compound (m-2), 0.5 µl of 200 mg/l suspension applied to wheat leaf (Abukumawase), inoculated after one day.

In general, pest or weed control refers to the degree to which the test organism was suppressed or injured, in per cent. Read a low pest or weed control as a weak effect. As a reminder, the inhibition is the drop in the measured response relative to a control, in per cent. In the test on cucumber powdery mildew, `Cc1ccc(CC(C)CN(C)Cc2ccc(Cl)nc2)cc1C` (stereo not shown) [(m-1), 6-chloro-N-[3-(3,4-dimethylphenyl)-2-methylpropyl]-N-me thyl-3-pyridylmethylamine] returned a pest or weed control at 100 µg/mL of 10%. The inhibition at 1.6 ppm in the test with Botrytis cinerea (setting [3]) is 20 to 40%. In the test with wheat powdery mildew [1], this compound returned a pest or weed control at 125 µg/mL of 10%. The “Relative Mobility” value in the test on wheat powdery mildew [2] (setting [4]) worked out at 1.

On to `COc1cccc(CC(C)CN(C)Cc2ccc(Cl)nc2)c1` (stereo not shown) [(m-3), 6-chloro-N-[3-(3-methoxyphenyl)-2-methylpropyl]-N-methy 1-3-pyridylmethylamine], for which the “Control Value” in the test with cucumber powdery mildew and in the test with wheat powdery mildew [1] was 0% each time. In addition, the “Growth Inhibition B.c (1.6)” value in the test on Botrytis cinerea (setting [3]) is reported as 1 (Hypha extension inhibition rate of less than 20%). Also, the “Relative Mobility” value in the test on wheat powdery mildew [2] (setting [4]) is 1.

For the compound `CC(Cc1ccc(C(C)(C)C)cc1)CN(C)Cc1ccc(Cl)nc1` (stereo not shown) [(m-2), N-[3-(4-t-butylphenyl)-2-methylpropyl]-6-chloro-N-methy 1-3-pyridylmethylamine], the “Relative Mobility” value with wheat powdery mildew [2] (setting [4]) was determined as 1.

As to `CC(Cc1cccc(OC(F)(F)F)c1)CN(C)Cc1ccc(Cl)nc1` (stereo not shown) [(b), 6-chloro-N-methyl-[2-methyl-3-(3-trifluoromethoxyphenyl)propyl]-3-pyridylmethylamine], in the test on cucumber powdery mildew, the pest or weed control at 100 µg/mL is 60%. In addition, the inhibition at 1.6 ppm in the test on Botrytis cinerea (setting [3]) lay within 40 to 70%. For the same compound, in the test on wheat powdery mildew [1], the pest or weed control at 125 µg/mL turned out to be 80%. Further, the “Relative Mobility” value with wheat powdery mildew [2] (setting [4]) is 3.

In turn, `CC(Cc1cccc(Cl)c1)CN(C)Cc1ccc(Cl)nc1` (stereo not shown) [(c-3), 6-chloro-N-[3-(3-chlorophenyl)-2-methylpropyl]-N-methyl-3-pyridylmethylamine] showed a pest or weed control at 100 µg/mL in the test on cucumber powdery mildew of 0%. Further, the inhibition at 1.6 ppm in the test with Botrytis cinerea (setting [3]) lay within 20 to 40%. For the same compound, in the test on wheat powdery mildew [1], the pest or weed control at 125 µg/mL was found to be 50%. Besides, the “Relative Mobility” value in the test on wheat powdery mildew [2] (setting [4]) stood at 1.

Regarding `CC(Cc1cccc(Cl)c1Cl)CN(C)Cc1ccc(Cl)nc1` (stereo not shown) [(c-1), 6-chloro-N-[3-(2,3-dichlorophenyl)-2-methylpropyl]-N-me thyl-3-pyridylmethylamine], in the test with cucumber powdery mildew, the pest or weed control at 100 µg/mL was determined as 0%. The inhibition at 1.6 ppm with Botrytis cinerea (setting [3]) lay in the range of 20 to 40%. The pest or weed control at 125 µg/mL with wheat powdery mildew [1] is 40%. Moreover, in the test on wheat powdery mildew [2] (setting [4]), the “Relative Mobility” value stood at 1.

`CC(Cc1ccc2c(c1)OCO2)CN(C)Cc1ccc(Cl)nc1` (stereo not shown) [(d), 6-chloro-N-[2-methyl-3-(3,4-methylenedioxyphenyl)propyl]-N-methyl-3-pyridylmethylamine] registered a pest or weed control at 100 µg/mL in the test on cucumber powdery mildew of 0%. The inhibition at 1.6 ppm in the test with Botrytis cinerea (setting [3]) is less than 20%. This compound yielded a pest or weed control at 125 µg/mL in the test on wheat powdery mildew [1] of 10%. For the same compound, the “Relative Mobility” value with wheat powdery mildew [2] (setting [4]) worked out at 1.

For `CC(Cc1cccc(C(F)(F)F)c1)CN(C)Cc1ccc(Cl)nc1` (stereo not shown) [(a), 6-chloro-N-methyl-[2-methyl-3-(3-trifluoromethylphenyl)propyl]-3-pyridylmethylamine], the pest or weed control at 100 µg/mL in the test on cucumber powdery mildew stood at 50%. Moreover, in the test on Botrytis cinerea (setting [3]), the inhibition at 1.6 ppm was 20 to 40%. In the test on wheat powdery mildew [1], this compound returned a pest or weed control at 125 µg/mL of 70%. Also, the “Relative Mobility” value in the test on wheat powdery mildew [2] (setting [4]) came out at 1.

In the case of `CC(Cc1ccc(F)c(OC(F)(F)F)c1)CN(C)Cc1ccc(Cl)nc1` (stereo not shown) [Compound I-16], the “Control Value” in the test on cucumber powdery mildew and with wheat powdery mildew [1] was 100% throughout. In the test with Botrytis cinerea, the inhibition at 1.6 ppm was 70 to 90%. The “Relative Mobility” value in the test on wheat powdery mildew [2] (24 h, 200 ug/mL) is 9. For the same compound, the inhibition at 0.8 ppm in the test with Leptosphaeria nodorum was greater than 90%.
